According to patent publication US10292412B2, “High solubility natural sweetener compositions” (KRAFT FOODS GLOBAL BRANDS LLC, priority 2012, dated 2019):

What was measured:
Type in all cases: physicochemical
[1] = Example 6: solubility rating of rebaudioside A liquid concentrate after 33 months at 35° F.; conditions: water 62.27%, Citric Acid 16.96%, Potassium Citrate 1.4%, Flavor (80%-90% Ethanol) 11%, Reb A 4.4%, Malic Acid 3.89%, Shade 0.08%
Procedure: A liquid concentrate sample was prepared using rebaudioside A from Cargill. Samples were measured for solubility as defined in sections 46-47. The samples were rated as 3 on the scale after 33 months at 35° F. The formula is included in the table below: […]

[2] = Example 3: solubility (1-5 scale) after seven days; ambient water, heated water or 0.45 micron filtered rebaudioside A solutions with citric acid and ethanol
Procedure: Several solutions including rebaudioside A were prepared to test the effect of heating and filtering on the solubility of rebaudioside A. The formulations are as follows: […]
The solutions for the ambient water experimentation were prepared by dissolving rebaudioside A in ambient water (about 68° F. to about 77° F.) using a magnetic stir bar. Citric acid and ethanol were then dissolved into the solution using a magnetic stir bar.
The solutions for the heated water experimentation were prepared by heating water to 150° F. Rebaudioside A was added and dissolved using a magnetic stir bar. The solution was removed from the heat and citric acid was added and dissolved by a magnetic stir bar. After the solution cooled to 100° F. or below, ethanol was added and stirred into the solution by a magnetic stirrer.
The solutions for the filtered rebaudioside A experimentation were prepared by first dissolving rebaudioside A in ambient water (about 68° F. to about 77° F.) using a magnetic stir bar. The solution was then passed through a 0.45 micron filter. Citric acid and ethanol were dissolved into the solution using a magnetic stir bar.
Solubility was measured according to the 1-5 scale in the table above after seven days. […]

[3] = Example 2: solubility of rebaudioside A in liquid concentrates with varying water, acid and alcohol; parameters: scale not given here
Procedure: Liquid concentrate formulations were prepared including varying levels of rebaudioside A, water, alcohol, and acid. The solubility was measured at various concentrations of each of the components and the results are included in the tables below: […]

C=C1C[C@@]23CC[C@H]4[C@@](C)(CCC[C@@]4(C)C(=O)O[C@@H]4O[C@H](CO)[C@@H](O)[C@H](O)[C@H]4O)[C@@H]2CC[C@]1(O[C@@H]1O[C@H](CO)[C@@H](O)[C@H](O[C@@H]2O[C@H](CO)[C@@H](O)[C@H](O)[C@H]2O)[C@H]1O[C@@H]1O[C@H](CO)[C@@H](O)[C@H](O)[C@H]1O)C3 [Reb A, rebaudioside A]
solubility rating on the scale [1]: 3 (a solubility of 3 may be represented by 1% to 5% v/v of pellet) | solubility after seven days ([2]; ambient water, 5 wt % rebaudioside A, all ethanol/acid conditions tested except high ethanol (30% by volume) and high acid (30% by weight)): crystallized | solubility after seven days ([2]; ambient water, 10 wt % rebaudioside A, high ethanol (30% by volume) and high acid (30% by weight)): failed | solubility after seven days ([2]; ambient water, filtered at 0.45 micron, 5 wt % rebaudioside A, all points except low acid/low ethanol): passed | solubility after seven days ([2]; heated water (150° F.), 5 wt % rebaudioside A, all ethanol/acid points): passed | solubility after seven days ([2]; heated water (150° F.), 10 wt % rebaudioside A, all ethanol/acid points): passed | solubility after seven days ([2]; heated water (150° F.), 15 wt % rebaudioside A, low ethanol (10%)/low acid (10%)): failed | solubility after seven days ([2]; heated water (150° F.), 15 wt % rebaudioside A, medium ethanol (20%)/low acid): failed | Response 1 Solubility ([3]; Water/Citric Acid/Ethanol (190 Proof)/RebA 0.00/0/92.44/7.5600 ml): 5 | Response 1 Solubility ([3]; Water/Citric Acid/Ethanol (190 Proof)/RebA 0.00/21.92/77.48/0.6048 ml): 1 | Response 1 Solubility ([3]; Water/Citric Acid/Ethanol (190 Proof)/RebA 39.71/32.88/19.85/7.5600 ml): 1 | Response 1 Solubility ([3]; Water/Citric Acid/Ethanol (190 Proof)/RebA 47.96/0/47.96/4.0824 ml): 1 | Response 1 Solubility ([3]; Water/Citric Acid/Ethanol (190 Proof)/RebA 59.56/32.88/0.00/7.5600 ml): 2 | Response 1 Solubility ([3]; Water/Citric Acid/Propylene Glycol/RebA 0.00/0/92.44/7.5600 ml): Insoluble | Response 1 Solubility ([3]; Water/Citric Acid/Propylene Glycol/RebA 0.00/0/99.40/0.6048 ml): 1 | Response 1 Solubility ([3]; Water/Citric Acid/Propylene Glycol/RebA 0.00/21.92/77.48/0.6048 ml): Insoluble | Response 1 Solubility ([3]; Water/Citric Acid/Propylene Glycol/RebA 33.13/0/66.26/0.6048 ml): 1 | Response 1 Solubility ([3]; Water/Citric Acid/Propylene Glycol/RebA 33.13/10.96/55.30/0.6048 ml): 1 | Response 1 Solubility ([3]; Water/Citric Acid/Propylene Glycol/RebA 39.71/32.88/19.85/7.5600 ml): Insoluble | Response 1 Solubility ([3]; Water/Citric Acid/Propylene Glycol/RebA 47.96/0/47.96/4.0824 ml): 2 | Response 1 Solubility ([3]; Water/Citric Acid/Propylene Glycol/RebA 49.65/24.66/19.87/5.8212 ml): 2 | Response 1 Solubility ([3]; Water/Citric Acid/Propylene Glycol/RebA 55.30/10.96/33.13/0.6048 ml): 1 | Response 1 Solubility ([3]; Water/Citric Acid/Propylene Glycol/RebA 59.56/32.88/0.00/7.5600 ml): 2 | Response 1 Solubility ([3]; Water/Citric Acid/Propylene Glycol/RebA 59.61/16.44/19.87/4.0824 ml): 2 | Response 1 Solubility ([3]; Water/Citric Acid/Propylene Glycol/RebA 66.26/0/33.13/0.6048 ml): 1 | Response 1 Solubility ([3]; Water/Citric Acid/Propylene Glycol/RebA 66.52/32.88/0.00/0.6048 ml): 1 | Response 1 Solubility ([3]; Water/Citric Acid/Propylene Glycol/RebA 69.57/8.22/19.87/2.3436 ml): 3 | Response 1 Solubility ([3]; Water/Citric Acid/Propylene Glycol/RebA 79.48/16.44/0.00/4.0824 ml): 3 | Response 1 Solubility ([3]; Water/Citric Acid/Propylene Glycol/RebA 92.44/0/0.00/7.5600 ml): 5 | Response 1 Solubility ([3]; Water/Citric Acid/Propylene Glycol/RebA 99.40/0/0.00/0.6048 ml): 3 | Response 1 Solubility ([3]; Water/Malic Acid/Ethanol (200 Proof)/RebA 0.00/0/92.44/7.5600 ml): Insoluble | Response 1 Solubility ([3]; Water/Malic Acid/Ethanol (200 Proof)/RebA 0.00/0/99.40/0.6048 ml): Insoluble | Response 1 Solubility ([3]; Water/Malic Acid/Ethanol (200 Proof)/RebA 0.00/10.96/88.44/0.6048 ml): 5 | Response 1 Solubility ([3]; Water/Malic Acid/Ethanol (200 Proof)/RebA 55.30/10.96/33.13/0.6048 ml): 1 | Response 1 Solubility ([3]; Water/Phosphoric Acid/Ethanol (190 Proof)/RebA 0.00/0.00/92.44/7.56 ml): Insoluble | Response 1 Solubility ([3]; Water/Phosphoric Acid/Ethanol (190 Proof)/RebA 0.00/0.00/99.40/0.60 ml): Insoluble | Response 1 Solubility ([3]; Water/Phosphoric Acid/Ethanol (190 Proof)/RebA 0.00/30.81/61.63/7.56 ml): Insoluble | Response 1 Solubility ([3]; Water/Phosphoric Acid/Ethanol (190 Proof)/RebA 0.00/33.13/66.26/0.60 ml): 1 | Response 1 Solubility ([3]; Water/Phosphoric Acid/Ethanol (190 Proof)/RebA 0.00/47.96/47.96/4.08 ml): Insoluble | Response 1 Solubility ([3]; Water/Phosphoric Acid/Ethanol (190 Proof)/RebA 0.00/66.26/33.13/0.60 ml): 1 | Response 1 Solubility ([3]; Water/Phosphoric Acid/Ethanol (190 Proof)/RebA 0.00/92.44/0.00/7.56 ml): Insoluble | Response 1 Solubility ([3]; Water/Phosphoric Acid/Ethanol (190 Proof)/RebA 0.00/99.40/0.00/0.60 ml): Insoluble | Response 1 Solubility ([3]; Water/Phosphoric Acid/Ethanol (190 Proof)/RebA 15.99/15.99/62.21/5.82 ml): 2 | Response 1 Solubility ([3]; Water/Phosphoric Acid/Ethanol (190 Proof)/RebA 15.99/39.10/39.10/5.82 ml): 2 | Response 1 Solubility ([3]; Water/Phosphoric Acid/Ethanol (190 Proof)/RebA 15.99/62.21/15.99/5.82 ml): Insoluble | Response 1 Solubility ([3]; Water/Phosphoric Acid/Ethanol (190 Proof)/RebA 30.81/61.63/0.00/7.56 ml): Insoluble | Response 1 Solubility ([3]; Water/Phosphoric Acid/Ethanol (190 Proof)/RebA 33.13/0.00/66.26/0.60 ml): 1 | Response 1 Solubility ([3]; Water/Phosphoric Acid/Ethanol (190 Proof)/RebA 33.13/33.13/33.13/0.60 ml): 1 | Response 1 Solubility ([3]; Water/Phosphoric Acid/Ethanol (190 Proof)/RebA 33.13/66.26/0.00/0.60 ml): Insoluble
